Experimental data reported in ChEMBL document CHEMBL3797052 (Eur J Med Chem, 2016).

tested on: not listed separately; test: Antiproliferative activity against human RPMI8226 cells assessed as growth inhibition after 48 hrs by sulforhodamine B assay; assay type: functional; conditions: RPMI-8226, 48 h

Compound	GI50 [nM]	LC50 [µM]
CNC(=O)c1cc(Oc2ccc3nc(NC(=O)Nc4ccc(Cl)c(C(F)(F)F)c4)sc3c2)ccn1	2220	> 100

tested on: NCI-H522; test: Antiproliferative activity against human NCI-H522 cells assessed as cell growth at 10^-4 M after 48 hrs by sulforhodamine B assay; assay type: functional; conditions: NCI-H522, 48 h, read-out: Activity

Compound	growth at 100 µM [%]
CNC(=O)c1cc(Oc2ccc3nc(NC(=O)Nc4ccc(Cl)c(C(F)(F)F)c4)sc3c2)ccn1	23

tested on: not listed separately; test: Antiproliferative activity against human DU145 cells assessed as cell growth at 10^-8 M after 48 hrs by sulforhodamine B assay; assay type: functional; conditions: DU-145, 48 h, read-out: Activity

Compound	growth at 0.01 µM [%]
CNC(=O)c1cc(Oc2ccc3nc(NC(=O)Nc4ccc(Cl)c(C(F)(F)F)c4)sc3c2)ccn1	109

tested on: not listed separately; test: Antiproliferative activity against human PC3 cells assessed as growth inhibition after 48 hrs by sulforhodamine B assay; assay type: functional; conditions: PC-3, 48 h

Compound	GI50 [nM]
CNC(=O)c1cc(Oc2ccc3nc(NC(=O)Nc4ccc(Cl)c(C(F)(F)F)c4)sc3c2)ccn1	1420

tested on: not listed separately; test: Antiproliferative activity against human HL-60(TB) cells assessed as cell growth at 10^-8 M after 48 hrs by sulforhodamine B assay; assay type: functional; conditions: HL-60, 48 h, read-out: Activity

Compound	growth at 0.01 µM [%]
CNC(=O)c1cc(Oc2ccc3nc(NC(=O)Nc4ccc(Cl)c(C(F)(F)F)c4)sc3c2)ccn1	101

tested on: not listed separately; test: Antiproliferative activity against human HOP92 cells assessed as growth inhibition after 48 hrs by sulforhodamine B assay; assay type: functional; conditions: HOP-92, 48 h

Compound	GI50 [nM]	LC50 [µM]	TGI [µM]
CNC(=O)c1cc(Oc2ccc3nc(NC(=O)Nc4ccc(Cl)c(C(F)(F)F)c4)sc3c2)ccn1	1150	9.12	3.24

tested on: CCRF-CEM; test: Antiproliferative activity against human CCRF-CEM cells assessed as cell growth at 10^-4 M after 48 hrs by sulforhodamine B assay; assay type: functional; conditions: read-out: Activity

Compound	growth at 100 µM [%]
CNC(=O)c1cc(Oc2ccc3nc(NC(=O)Nc4ccc(Cl)c(C(F)(F)F)c4)sc3c2)ccn1	53

tested on: not listed separately; test: Antiproliferative activity against human NCI-ADR-RES cells assessed as growth inhibition after 48 hrs by sulforhodamine B assay; assay type: functional; conditions: not given

Compound	GI50 [nM]	LC50 (concentration killing 50% of cells) [µM]
CNC(=O)c1cc(Oc2ccc3nc(NC(=O)Nc4ccc(Cl)c(C(F)(F)F)c4)sc3c2)ccn1	2430	> 100

tested on: Malme-3M; test: Antiproliferative activity against human MALME-3M cells assessed as cell growth at 10^-4 M after 48 hrs by sulforhodamine B assay; assay type: functional; conditions: read-out: Activity

Compound	growth at 100 µM [%]
CNC(=O)c1cc(Oc2ccc3nc(NC(=O)Nc4ccc(Cl)c(C(F)(F)F)c4)sc3c2)ccn1	-48

tested on: not listed separately; test: Antiproliferative activity against human LOXIMVI cells assessed as cell growth at 10^-7 M after 48 hrs by sulforhodamine B assay; assay type: functional; conditions: LOX IMVI, read-out: Activity

Compound	growth at 0.1 µM [%]
CNC(=O)c1cc(Oc2ccc3nc(NC(=O)Nc4ccc(Cl)c(C(F)(F)F)c4)sc3c2)ccn1	102

tested on: K562; test: Antiproliferative activity against human K562 cells assessed as cell growth at 10^-4 M after 48 hrs by sulforhodamine B assay; assay type: functional; conditions: K562, 48 h, read-out: Activity

Compound	growth at 100 µM [%]
CNC(=O)c1cc(Oc2ccc3nc(NC(=O)Nc4ccc(Cl)c(C(F)(F)F)c4)sc3c2)ccn1	59

tested on: KM12; test: Antiproliferative activity against human KM12 cells assessed as cell growth at 10^-8 M after 48 hrs by sulforhodamine B assay; assay type: functional; conditions: KM12, 48 h, read-out: Activity

Compound	growth at 0.01 µM [%]
CNC(=O)c1cc(Oc2ccc3nc(NC(=O)Nc4ccc(Cl)c(C(F)(F)F)c4)sc3c2)ccn1	103

tested on: not listed separately; test: Antiproliferative activity against human TK10 cells assessed as cell growth at 10^-4 M after 48 hrs by sulforhodamine B assay; assay type: functional; conditions: TK-10, 48 h, read-out: Activity

Compound	growth at 100 µM [%]
CNC(=O)c1cc(Oc2ccc3nc(NC(=O)Nc4ccc(Cl)c(C(F)(F)F)c4)sc3c2)ccn1	-62

tested on: A549; test: Antiproliferative activity against human A549/ATCC cells assessed as growth inhibition after 48 hrs by sulforhodamine B assay; assay type: functional; conditions: A549, 48 h

Compound	GI50 [nM]
CNC(=O)c1cc(Oc2ccc3nc(NC(=O)Nc4ccc(Cl)c(C(F)(F)F)c4)sc3c2)ccn1	1930

same assay, conditions: A549, 48 h, read-out: LC50 (the source's name)

Compound	CC50 [µM]
CNC(=O)c1cc(Oc2ccc3nc(NC(=O)Nc4ccc(Cl)c(C(F)(F)F)c4)sc3c2)ccn1	> 100

tested on: ACHN; test: Antiproliferative activity against human ACHN cells assessed as cell growth at 10^-8 M after 48 hrs by sulforhodamine B assay; assay type: functional; conditions: read-out: Activity

Compound	growth at 0.01 µM [%]
CNC(=O)c1cc(Oc2ccc3nc(NC(=O)Nc4ccc(Cl)c(C(F)(F)F)c4)sc3c2)ccn1	97

tested on: A549; test: Antiproliferative activity against human A549/ATCC cells assessed as cell growth at […] after 48 hrs by sulforhodamine B assay; assay type: functional; conditions: A549, 48 h, read-out: Activity

Compound	growth at 0.1 µM [%]
CNC(=O)c1cc(Oc2ccc3nc(NC(=O)Nc4ccc(Cl)c(C(F)(F)F)c4)sc3c2)ccn1	105

tested on: SR; test: Antiproliferative activity against human SR cells assessed as cell growth at 10^-6 M after 48 hrs by sulforhodamine B assay; assay type: functional; conditions: read-out: Activity

Compound	growth at 1 µM [%]
CNC(=O)c1cc(Oc2ccc3nc(NC(=O)Nc4ccc(Cl)c(C(F)(F)F)c4)sc3c2)ccn1	15
